Experimental data reported in US20250034170A1, “SMALL MOLECULE MODULATORS OF GLUCOCEREBROSIDASE ACTIVITY AND USES THEREOF” (Vanqua Bio, Inc., priority 2021, published 2025).

The compounds below were run against T1, GCase (Homo sapiens, UniProt P04062) (assay: activation of GCase in a live cell PFB assay in HELA cells). Details: EC50 given as range classes.
T1 construct: endogenous in cells; host or cells: HeLa cells
T1 sequence (P04062 40-536): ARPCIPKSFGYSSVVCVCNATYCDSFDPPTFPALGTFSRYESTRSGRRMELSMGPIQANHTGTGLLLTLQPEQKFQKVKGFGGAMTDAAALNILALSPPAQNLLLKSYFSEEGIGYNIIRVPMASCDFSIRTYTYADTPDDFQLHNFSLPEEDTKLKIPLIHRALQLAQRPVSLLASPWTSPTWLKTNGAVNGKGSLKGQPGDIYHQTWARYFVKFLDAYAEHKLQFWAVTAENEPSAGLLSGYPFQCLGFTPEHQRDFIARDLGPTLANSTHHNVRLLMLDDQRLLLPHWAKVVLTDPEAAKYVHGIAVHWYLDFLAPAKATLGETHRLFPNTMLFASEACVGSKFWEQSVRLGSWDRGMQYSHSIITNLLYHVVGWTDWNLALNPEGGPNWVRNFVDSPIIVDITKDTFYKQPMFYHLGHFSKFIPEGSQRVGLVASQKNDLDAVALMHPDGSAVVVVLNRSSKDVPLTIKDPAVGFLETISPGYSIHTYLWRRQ
Type: cell-based
Protocol: Exemplary compounds were evaluated for activation of GCase in a live cell PFB assay in HELA cells (essentially as described in Ysselstein et al., “LRRK2 kinase activity regulates lysosomal glucocerebrosidase in neurons derived from Parkinson's disease patients” Nature Communications (2019) 10:5570). […] EC50 ranges: A: <10 μM; B: >10-50 μM; C: >50-100 μM; D: >100 μM.

Compound | EC50 [µM]
Cn1c(=O)n(C2COC2)c2nc(N3CCC4(CN(c5ccnc(C(F)(F)F)c5)C4)C3)cnc21 [Cmpd 978] | < 10
Cn1c(=O)n(C2COC2)c2ncc(N3CCC4(CN(c5ccnc(C(F)(F)F)c5)C4)C3)nc21 [Cmpd 979] | < 10
CCn1c(=O)n(CC(F)F)c2nc(N3CCC4(CN(c5ccnc(C(F)(F)F)c5)C4)C3)cnc21 [Cmpd 980] | < 10
CCn1c(=O)n(C2COC2)c2nc(N3CCC4(CN(c5ccnc(C(F)(F)F)c5)C4)C3)cnc21 [Cmpd 981] | 10 to 50
CCn1c(=O)n(C2COC2)c2ncc(N3CCC4(CN(c5ccnc(C(F)(F)F)c5)C4)C3)nc21 [Cmpd 982] | 10 to 50
CCN1C(=O)N(c2ccnc(C(F)(F)F)c2)C(=O)C12CCN(c1cnc3cnn(C4COC4)c3n1)CC2 [Cmpd 983] | 10 to 50
CCN1C(=O)N(c2ccnc(C(F)(F)F)c2)C(=O)C12CCN(c1cnc3c(C)nn(C4COC4)c3n1)CC2 [Cmpd 984] | < 10
Cc1nn(CC(F)F)c2nc(N3CCC4(CN(c5ccnc(C(F)(F)F)c5)C4)C3)cnc12 [Cmpd 985] | > 100
FC(F)(F)c1cc(N2CC3(CCN(c4nccc(-c5nncs5)n4)C3)C2)ccn1 [Cmpd 986] | < 10
Cn1c(N2CCC3(CN(c4cnc(C(F)(F)F)nc4)C3)C2)nc2c(cnn2CC(F)F)c1=O [Cmpd 988] | < 10
CCn1ncc2c(=O)n(C)c(N3CCC4(CN(c5cnc(C(F)(F)F)nc5)C4)C3)nc21 [Cmpd 990] | < 10
Cn1c(N2CCC3(CN(c4ccnc(C(F)(F)F)n4)C3)C2)nc2c(cnn2CC(F)F)c1=O [Cmpd 991] | < 10
Cn1c(N2CCC3(CN(c4ccnc(C(F)(F)F)c4)C3)C2=O)nc2c(cnn2CC(F)F)c1=O [Cmpd 992] | 10 to 50
Cc1nn(CC(F)F)c2nc(N3CCC4(CN(c5ccnc(C(F)(F)F)c5)C4)C3)n(C)c(=O)c12 [Cmpd 994] | < 10
Cn1c(N2CCC3(CN(c4ccc(C(F)(F)F)nc4)C3)C2)nc2c(cnn2CC(F)F)c1=O [Cmpd 997] | < 10
Cn1c(N2CC3(CC2=O)CN(c2ccnc(C(F)(F)F)c2)C3)nc2c(cnn2CC(F)F)c1=O [Cmpd 998] | 10 to 50
O=C1N(c2ncc3cnn(CC(F)F)c3n2)CCC12CN(c1ccnc(C(F)(F)F)c1)C2 [Cmpd 999] | 10 to 50
Cc1nn(CC(F)F)c2nc(N3CCC4(CN(c5ccnc(C(F)(F)F)c5)C4)C3=O)cnc12 [Cmpd 1001] | < 10
O=C1N(c2cnc3cnn(C4COC4)c3n2)CCC12CN(c1ccnc(C(F)(F)F)c1)C2 [Cmpd 1003] | 10 to 50
O=C1CC2(CN(c3ccnc(C(F)(F)F)c3)C2)CN1c1ncc2cnn(CC(F)F)c2n1 [Cmpd 1005] | 10 to 50
Cc1nn(CC(F)F)c2nc(N3CC4(CC3=O)CN(c3ccnc(C(F)(F)F)c3)C4)ncc12 [Cmpd 1006] | 10 to 50
Cc1nn(C2COC2)c2nc(N3CC4(CC3=O)CN(c3ccnc(C(F)(F)F)c3)C4)ncc12 [Cmpd 1009] | 10 to 50
O=C1N(c2cnc3cnn(CC(F)F)c3n2)CCC12CN(c1ccc(C(F)(F)F)nc1)C2 [Cmpd 1010] | 50 to 100
O=C1N(c2cnc3cnn(CC(F)F)c3n2)CCC12CN(c1ccc(C(F)(F)F)cn1)C2 [Cmpd 1011] | 10 to 50
O=C1N(c2cnc3cnn(CC(F)F)c3n2)CCC12CN(c1cnc(C(F)(F)F)nc1)C2 [Cmpd 1012] | 10 to 50
Cn1c(N2CCC3(CCN(c4ccnc(C(F)(F)F)c4)C3)CC2)nc2c(cnn2CC(F)F)c1=O [Cmpd 1013] | < 10
Cn1c(N2CCC3(CCN(c4cnc(C(F)(F)F)nc4)C3)CC2)nc2c(cnn2CC(F)F)c1=O [Cmpd 1015] | 10 to 50
Cn1c(N2CCC3(CCN(c4cnc(C(F)(F)F)nc4)C3)CC2)nc2c(cnn2CC(F)(F)F)c1=O [Cmpd 1016] | < 10
Cn1c(N2CCC3(CN(c4ccnc(C(F)(F)F)c4)C3)C2)nc2c(cnn2CC(F)(F)F)c1=O [Cmpd 1017] | 10 to 50

Other lines, results leading:

EC50 [µM] | Compound
> 100 | FC(F)(F)c1cc(N2CC3(CCN(c4cnc5cnn(C6COC6)c5n4)C3)C2)ccn1 [Cmpd 987]
> 100 | Cn1c(N2CCC3(CN(c4ccnc(C(F)(F)F)c4)C3)C2)nc2c(cnn2CC(F)F)c1=O [Cmpd 989]
50 to 100 | Cn1c(N2CCC3(CN(c4ccnc(C(F)(F)F)c4)C3)C2)nc2c(cnn2C2COC2)c1=O [Cmpd 993]
< 10 | Cc1nn(C2COC2)c2nc(N3CCC4(CN(c5ccnc(C(F)(F)F)c5)C4)C3)n(C)c(=O)c12 [Cmpd 995]
10 to 50 | Cn1c(N2CCC3(CN(c4ccc(C(F)(F)F)cn4)C3)C2)nc2c(cnn2CC(F)F)c1=O [Cmpd 996]
< 10 | Cc1nn(CC(F)F)c2nc(N3CCC4(CN(c5ccnc(C(F)(F)F)c5)C4)C3=O)ncc12 [Cmpd 1000]
< 10 | Cc1nn(C2COC2)c2nc(N3CCC4(CN(c5ccnc(C(F)(F)F)c5)C4)C3=O)cnc12 [Cmpd 1002]
10 to 50 | O=C1N(c2ncc3cnn(C4COC4)c3n2)CCC12CN(c1ccnc(C(F)(F)F)c1)C2 [Cmpd 1004]
< 10 | Cc1nn(CC(F)F)c2nc(N3CC4(CC3=O)CN(c3ccnc(C(F)(F)F)c3)C4)cnc12 [Cmpd 1007]
10 to 50 | O=C1CC2(CN(c3ccnc(C(F)(F)F)c3)C2)CN1c1ncc2cnn(C3COC3)c2n1 [Cmpd 1008]
< 10 | Cn1c(N2CCC3(CCN(c4ccnc(C(F)(F)F)n4)C3)CC2)nc2c(cnn2CC(F)F)c1=O [Cmpd 1014]

Same assay, conditions: activation of GCase, EC50 ranges

Compound | EC50 [µM]
FC(F)(F)c1cc(N2CC3(CCN(c4ncc5cnn(C6COC6)c5n4)C3)C2)ccn1 [Cmpd 962] | 10 to 50
CC(c1ccc(C(F)(F)F)cn1)N1CC2(CCN(c3cnc4cnn(CC(F)F)c4n3)CC2)CC1=O (centres unmarked) [Cmpd 964] | < 10
CC(c1ccc(C(F)(F)F)nc1)N1CC2(CCN(c3cnc4cnn(CC(F)F)c4n3)CC2)CC1=O (centres unmarked) [Cmpd 965] | 10 to 50
CC(c1cncc(Cl)c1)N1CC2(CCN(c3cnc4cnn(CC(F)F)c4n3)CC2)CC1=O (centres unmarked) [Cmpd 968] | < 10
O=C1CC2(CCN(c3cnc4cnn(CC(F)F)c4n3)CC2)CN1Cc1ccnc(OCC(F)(F)F)n1 [Cmpd 971] | < 10
Cc1ncc(CN2CC3(CCN(c4cnc5cnn(CC(F)F)c5n4)CC3)CC2=O)o1 [Cmpd 974] | 50 to 100
Cc1cnc(CN2CC3(CCN(c4cnc5cnn(CC(F)F)c5n4)CC3)CC2=O)s1 [Cmpd 975] | 10 to 50
Cn1c(=O)n(CC(F)F)c2nc(N3CCC4(CN(c5ccnc(C(F)(F)F)c5)C4)C3)cnc21 [Cmpd 977] | 10 to 50

Further lines, results first:

EC50 [µM] | Compound
< 10 | O=C1CC2(CCN(c3cnc4cnn(CC(F)F)c4n3)CC2)CN1Cc1ncc(C(F)(F)F)cc1F [Cmpd 963]
< 10 | O=C1CC2(CCN(c3cnc4cnn(CC(F)F)c4n3)CC2)CN1Cc1ccnc(C(F)(F)F)c1F [Cmpd 966]
< 10 | CC(c1ccc(Cl)cn1)N1CC2(CCN(c3cnc4cnn(CC(F)F)c4n3)CC2)CC1=O (centres unmarked) [Cmpd 967]
< 10 | CC(c1ccnc(C(F)(F)F)c1)N1CC2(CCN(c3cnc4cnn(CC(F)F)c4n3)CC2)CC1=O (centres unmarked) [Cmpd 969]
50 to 100 | COc1nccc(CN2CC3(CCN(c4cnc5cnn(CC(F)F)c5n4)CC3)CC2=O)n1 [Cmpd 970]
10 to 50 | Cc1cc(CN2CC3(CCN(c4cnc5cnn(CC(F)F)c5n4)CC3)CC2=O)on1 [Cmpd 972]
10 to 50 | CCc1sc(C(F)(F)F)nc1N1CC2(CCN(c3cnc4cnn(CC(F)F)c4n3)CC2)CC1=O [Cmpd 973]
< 10 | CCc1cnc(CN2CC3(CCN(c4cnc5cnn(CC(F)F)c5n4)CC3)CC2=O)s1 [Cmpd 976]
